# Data taken from patent US20160303184A1, “VANCOMYCIN-SUGAR CONJUGATES AND USES THEREOF” (JAWAHARLAL NEHRU CENTRE FOR ADVANCED SCIENTIFIC RESEARCH …, priority 2013, published 2016).
# Like-named read-outs stand apart in the source and are kept apart here.
# Key:
# Type in all cases: cell-based
# [1] = tested on: Methicillin-sensitive S. aureus (MTCC 737); test: MIC, micro-dilution broth, MSSA; conditions: MTCC 737, read-out: MIC MSSA
# Procedure: (§1) All test compounds were assayed in a micro-dilution broth format. Stock solutions were made by serially diluting the compounds using autoclaved millipore water or broth media. The antibacterial activity of the compounds was determined against methicillin-sensitive S. aureus (MSSA), methicillin-resistant S. aureus (MRSA), vancomycin-intermediate-resistant S. aureus (VISA), vancomycin-sensitive E. faecium (VSE) and vancomycin-resistant E. faecium (VRE). Bacteria, to be tested, were grown for about 10 h in the suitable media, MSSA, MRSA and VISA were grown in yeast-dextrose broth (about 1 g of beef extract, about 2 g of yeast extract, about 5 g of peptone and about 5 g of NaCl in about 1000 mL of sterile distilled water (pH-7)). For solid media, about 5% agar was used along with above mentioned composition. VSE and VRE were cultured in brain heart infusion broth (Himedia). The bacterial samples were freeze dried and stored at −80° C. About 5 μL of these stocks were added to about 3 mL of the nutrient broth and the culture was grown for about 6 h at about 37° C. prior to the experiments. This 6 h grown culture gives about 10^9 cfu/mL and this was determined by spread plating method. The 6 h grown culture was diluted to give effective cell concentration of about 10^5 cfu/mL which was then used for determining MIC. Compounds were serially diluted, in sterile water (2 fold dilution is employed) in a way that the working concentration was about 10 μM for MSSA, MRSA, and VSE while for VRE and VISA it was about 100 μM. About 50 μL of these serial dilutions were added to the wells of 96 well plate followed by the addition of about 150 μL of bacterial solution. The plates were then incubated at about 37° C., 150 rpm in the incubator and O.D at 600 nm was recorded at an interval of about 10 h and 24 h using TECAN (Infinite series, M200 pro) Plate Reader. Each concentration had triplicate values and the whole experiment was done at least twice and the MIC value was determined by taking the average of triplicate. O. D. values for each concentration and plotting it against concentration. The data was then subjected to sigmoidal fitting. From the curve the MIC value was determined, as the point in the curve where the O. D. was similar to that of control having no bacteria.
# [2] = tested on: Methicillin-resistant S. aureus (ATCC 33591); test: MIC, micro-dilution broth, MRSA; conditions: ATCC 33591, read-out: MIC MRSA
# Procedure: as §1
# [3] = tested on: Vancomycin intermediate resistant S. aureus; test: MIC, micro-dilution broth, VISA; conditions: read-out: MIC VISA
# Procedure: as §1
# [4] = tested on: Vancomycin-sensitive E. faecium (ATCC 19634); test: MIC, micro-dilution broth, VSE; conditions: read-out: MIC VSE
# Procedure: as §1
# [5] = tested on: Vancomycin-resistant E. faecium (VanA, ATCC 51559); test: MIC, micro-dilution broth, VRE (VanA); conditions: E. faecium ATCC 51559, read-out: MIC VRE (VanA)
# Procedure: as §1
# [6] = tested on: Vancomycin-resistant E. faecalis (VanA, ATCC 51575); test: MIC, micro-dilution broth, VRE (VanB); conditions: Enterococcus faecalis; E. faecalis ATCC 51575; read-out: MIC VRE (VanB)
# [7] = tested on: methicillin-resistant S. epidermidis clinical isolate; test: MIC, clinical isolate of methicillin-resistant S. epidermidis; conditions: Staphylococcus epidermidis, read-out: MIC S. epidermidis
# [8] = tested on: methicillin-resistant S. haemolyticus clinical isolate; test: MIC, clinical isolate of methicillin-resistant S. haemolyticus; conditions: Staphylococcus haemolyticus; clinical isolate, methicillin-resistant; read-out: MIC S. haemolyticus
# [9] = tested on: methicillin-resistant S. aureus clinical isolate; test: MIC, clinical isolate of methicillin-resistant S. aureus; conditions: Staphylococcus aureus, read-out: MIC S. aureus
# Procedure: as §1
# [10] = Enterococcus faecium, ATCC19634, ATCC 19634
MIC [1] [µM],MIC [2] [µM],MIC [3] [µM],MIC ([4]; ATCC 19634) [µM],MIC [5] [µM],MIC ([1]; Staphylococcus aureus) [µM],MIC ([2]; Staphylococcus aureus) [µM],"MIC ([3]; Staphylococcus aureus, VISA) [µM]","MIC [4, 10] [µM]",MIC ([5]; Enterococcus faecium) [µM],MIC [6] [µM],Compound,MIC [7] [µM],MIC [8] [µM],MIC [9] [µM]
1.0,1.0,0.99,0.5,>100,–,–,–,–,–,–,CN[C@H](CC(C)C)C(=O)N[C@H]1C(=O)N[C@@H](CC(N)=O)C(=O)N[C@H]2C(=O)N[C@H]3C(=O)N[C@H](C(=O)N[C@H](C(=O)NCCCNCC(O)C(O)C(OC4OC(CO)C(O)C(O)C4O)C(O)CO)c4cc(O)cc(O)c4-c4cc3ccc4O)[C@H](O)c3ccc(c(Cl)c3)Oc3cc2cc(c3O[C@H]2OC(CO)[C@H](O)C(O)C2O[C@H]2C[C@@](C)(N)[C@H](O)C(C)O2)Oc2ccc(cc2Cl)[C@H]1O (some centres unmarked) [Compound 6],–,–,–
–,–,–,–,–,0.3,0.3,0.32,0.2,14,6.2,CCCCCCCCCCN[C@]1(C)C[C@H](OC2C(O)[C@@H](O)C(CO)O[C@@H]2Oc2c3cc4cc2Oc2ccc(cc2Cl)[C@@H](O)[C@@H](NC(=O)[C@@H](CC(C)C)NC)C(=O)N[C@@H](CC(N)=O)C(=O)N[C@H]4C(=O)N[C@H]2C(=O)N[C@H](C(=O)N[C@H](C(=O)O)c4cc(O)cc(O)c4-c4cc2ccc4O)[C@H](O)c2ccc(c(Cl)c2)O3)OC(C)[C@@H]1O (some centres unmarked) [Compound 8],–,–,–
–,–,–,–,–,0.3,0.3,0.4,0.4,25,12.5,CCCCCCCCN[C@]1(C)C[C@H](OC2C(O)[C@@H](O)C(CO)O[C@@H]2Oc2c3cc4cc2Oc2ccc(cc2Cl)[C@@H](O)[C@@H](NC(=O)[C@@H](CC(C)C)NC)C(=O)N[C@@H](CC(N)=O)C(=O)N[C@H]4C(=O)N[C@H]2C(=O)N[C@H](C(=O)N[C@H](C(=O)O)c4cc(O)cc(O)c4-c4cc2ccc4O)[C@H](O)c2ccc(c(Cl)c2)O3)OC(C)[C@@H]1O (some centres unmarked) [Compound 15],–,–,–
–,–,–,–,–,0.3,0.3,0.3,0.2,7,3.1,CCCCCCCCCCCCN[C@]1(C)C[C@H](OC2C(O)[C@@H](O)C(CO)O[C@@H]2Oc2c3cc4cc2Oc2ccc(cc2Cl)[C@@H](O)[C@@H](NC(=O)[C@@H](CC(C)C)NC)C(=O)N[C@@H](CC(N)=O)C(=O)N[C@H]4C(=O)N[C@H]2C(=O)N[C@H](C(=O)N[C@H](C(=O)O)c4cc(O)cc(O)c4-c4cc2ccc4O)[C@H](O)c2ccc(c(Cl)c2)O3)OC(C)[C@@H]1O (some centres unmarked) [Compound 16],–,–,–

Compound,MIC [1] [µM],MIC [2] [µM],MIC [3] [µM],MIC ([4]; ATCC 19634) [µM],MIC [5] [µM],MIC ([1]; Staphylococcus aureus) [µM],MIC ([2]; Staphylococcus aureus) [µM],"MIC ([3]; Staphylococcus aureus, VISA) [µM]","MIC [4, 10] [µM]",MIC ([5]; Enterococcus faecium) [µM],MIC [6] [µM],MIC [7] [µM],MIC [8] [µM],MIC [9] [µM]
CCCCCCCCN[C@]1(C)C[C@H](OC2C(O)[C@@H](O)C(CO)O[C@@H]2Oc2c3cc4cc2Oc2ccc(cc2Cl)[C@@H](O)[C@@H](NC(=O)[C@@H](CC(C)C)NC)C(=O)N[C@@H](CC(N)=O)C(=O)N[C@H]4C(=O)N[C@H]2C(=O)N[C@H](C(=O)N[C@H](C(=O)NCCCNC(=O)[C@H](O)[C@@H](O)[C@H](OC4OC(CO)C(O)C(O)C4O)[C@H](O)CO)c4cc(O)cc(O)c4-c4cc2ccc4O)[C@H](O)c2ccc(c(Cl)c2)O3)OC(C)[C@@H]1O (some centres unmarked) [Compound 17],–,–,–,–,–,0.2,0.3,0.31,0.2,2,6.2,0.3,0.4,0.2
CCCCCCCCCCCCN[C@]1(C)C[C@H](OC2C(O)[C@@H](O)C(CO)O[C@@H]2Oc2c3cc4cc2Oc2ccc(cc2Cl)[C@@H](O)[C@@H](NC(=O)[C@@H](CC(C)C)NC)C(=O)N[C@@H](CC(N)=O)C(=O)N[C@H]4C(=O)N[C@H]2C(=O)N[C@H](C(=O)N[C@H](C(=O)NCCCNC(=O)[C@H](O)[C@@H](O)[C@H](OC4OC(CO)C(O)C(O)C4O)[C@H](O)CO)c4cc(O)cc(O)c4-c4cc2ccc4O)[C@H](O)c2ccc(c(Cl)c2)O3)OC(C)[C@@H]1O (some centres unmarked) [Compound 18],–,–,–,–,–,0.2,0.3,0.22,0.2,0.8,1,0.35,0.5,0.3
